The values below come from the supplement of paper PMC4862054.

Assay [1] deals with BT-474. The assay is described as follows: normalised viability (% of control), CellTiter-Blue; higher = more viable cells (about 100 = DMSO control). Particulars: 100 nM; incubation time: 72 h. The essentials:
(§1)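 The reported quantity is normalised viability at a single listed concentration of the series. Compound in 5 µl medium was pre-dispensed into 384-well plates and 20 µl of breast cancer cell suspension was added for 72 h. A 2 h, 37 °C CellTiter-Blue step (2.5 µl) preceded fluorescence reading at 560/590 nm, and plates were normalised to vehicle (100) and a positive kill control (0).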
For orientation: Resazurin is reduced to fluorescent resorufin, in cell work by metabolically active cells.

The subject of assay [2] is BT-549. Described as above. Particulars: 100 nM; incubation time: 72 h. The essentials: as §1
Assay [3] deals with CAL-120. Described as above. Particulars: 100 nM; incubation time: 72 h. In outline: as §1
The test system of assay [4] is CAL-148. The description is as above. Particulars: 10 nM; incubation time: 72 h. The essentials:
as §1

For assay [5], the system named is CAL-85-1. Described as above. Particulars: 10 nM; incubation time: 72 h. The essentials:
as §1

In assay [6] the test system is DU-4475. The description is as above. The following applies: 10 nM; incubation time: 72 h. The essentials: as §1
The test system of assay [7] is HCC1143. The assay is described as above. The following applies: 100 nM; incubation time: 72 h. In outline:
as §1

In assay [8] the test system is HCC1599. Described as above. Particulars: 100 nM; incubation time: 72 h. The essentials:
as §1

Assay [9] concerns HCC1937. Described as above. The following applies: 100 nM; incubation time: 72 h. In outline: as §1
For assay [10], the system named is Hs578T. The description is as above. The following applies: 100 nM; incubation time: 72 h. In outline:
as §1

Assay [11] concerns MDA-MB-436. Described as above. The following applies: 100 nM; incubation time: 72 h. The essentials:
as §1

Assay [12] has as its system MDA-MB-453. Described as above. The following applies: 10 nM; incubation time: 72 h. In outline: as §1
For assay [13], the system named is MDA-MB-468. The assay is described as above. The following applies: 100 nM; incubation time: 72 h. In outline: as §1
The subject of assay [14] is MFM-223. The assay is described as above. Particulars: 100 nM; incubation time: 72 h. In outline: as §1
Assay [15] deals with SK-BR-3. The description is as above. Particulars: 100 nM; incubation time: 72 h. The essentials: as §1
Assay [16] concerns BT-474. The assay is described as follows: normalised response (% of control), CellTiter-Glo; higher = more viable cells (100 = DMSO, 0 = benzethonium chloride kill control). Particulars: incubation time: 72 h. The essentials: (§2)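 Breast cancer cell lines, seeded at 20 µl suspension per well, were incubated for 72 h in 384-well plates containing compound at 5 concentrations. These concentrations rose in 10-fold steps over a 10,000-fold range set for each compound. CellTox Green fluorescence (485/520 nm) was read, then CellTiter-Glo luminescence after 10 min at room temperature, and each plate was normalised to 0.1 % DMSO (100) and a positive kill control (0). Values are normalised signals, each at one concentration.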

In assay [17] the test system is BT-549. Described as above. Particulars: incubation time: 72 h. In outline:
as §2

Assay [18] has as its system CAL-120. The description is as above. Particulars: incubation time: 72 h. The essentials:
as §2

Assay [19] deals with CAL-148. Described as above. The following applies: incubation time: 72 h. In outline:
as §2

In assay [20] the test system is CAL-51. Described as above. The following applies: incubation time: 72 h. The essentials:
as §2

For assay [21], the system named is CAL-85-1. The assay is described as above. The following applies: incubation time: 72 h. In outline:
as §2

For assay [22], the system named is HCC1143. The description is as above. The following applies: incubation time: 72 h. The essentials:
as §2

Assay [23] has as its system HCC1599. Described as above. Particulars: incubation time: 72 h. The essentials: as §2
Assay [24] deals with HCC1937. Described as above. The following applies: incubation time: 72 h. The essentials: as §2
The subject of assay [25] is HDQ-P1. Described as above. Particulars: incubation time: 72 h. The essentials: as §2
Assay [26] deals with Hs578T. The assay is described as above. Particulars: incubation time: 72 h. In outline:
as §2

In assay [27] the test system is MCF-10A. Described as above. Particulars: incubation time: 72 h. The essentials: as §2
Assay [28] has as its system MDA-MB-231. The assay is described as above. The following applies: incubation time: 72 h. The essentials: as §2
For assay [29], the system named is MDA-MB-453. The assay is described as above. Particulars: incubation time: 72 h. In outline: as §2

Values joined by “and” are separate entries in the source; they are usually repeats but may differ in a detail not shown here. Equal entries are not always repeated.

Regarding `CO[C@H](C(=O)[C@@H](O)[C@@H](C)O)[C@@H]1Cc2cc3cc(O[C@H]4C[C@@H](O[C@@H]5C[C@@H](O)[C@H](O)[C@@H](C)O5)[C@H](O)[C@@H](C)O4)c(C)c(O)c3c(O)c2C(=O)[C@H]1O[C@H]1C[C@@H](O[C@@H]2C[C@@H](O)[C@@H](O[C@@H]3C[C@](C)(O)[C@H](O)[C@@H](C)O3)[C@@H](C)O2)[C@H](O)[C@@H](C)O1` [Plicamycin], the normalised viability is 73.2% and 72.3% in assay [1]; 20.2% and 17% in assay [2]; 45% and 34.8% in [3]; 82.9% and 99.5% in assay [4]; 96.7% and 94.2% in [5]; 88.6% and 110% in assay [6]. Besides, the normalised viability in [7] was 46% and 30.6%; in [8] it was 63% and 52.6%; in assay [9] it was 48.3% and 41.4%; in [10] it was 13% and 6.55%; in assay [11] it was 30.2% and 23.4%; in assay [12], 111% and 91.1%. Besides, the normalised viability in assay [13] was 9.16% and 7.26%; in assay [14] it was 71.4% and 61.1%; in assay [15] it was 30.8% and 21.9%.
`CO[C@H](C(=O)[C@@H](O)[C@@H](C)O)[C@@H]1Cc2cc3cc(O[C@H]4C[C@@H](O[C@@H]5C[C@@H](O)[C@H](O)[C@@H](C)O5)[C@H](O)[C@@H](C)O4)c(C)c(O)c3c(O)c2C(=O)[C@H]1O[C@H]1C[C@@H](O[C@@H]2C[C@@H](O)[C@@H](O[C@@H]3C[C@](C)(O)[C@H](O)[C@@H](C)O3)[C@@H](C)O2)[C@H](O)[C@@H](C)O1` [Plicamycin] (1000 nM): the normalised response in assay [16] turned out to be 91%; in assay [17], 89.5%; in [18] it was 105%; in [19], 104%; in assay [20], 86.9%; in assay [21], 100%. Moreover, the normalised response was 101% in [22]; 120% in [23]; 90% in [24]; 102% in assay [25]; 104% in assay [26]; 110% in [27]. The figures for the normalised response in assay [28] and in assay [29] were 94.2% and 105%, respectively.
Take `C[C@]12C=CC(=O)C=C1CC[C@@H]1[C@@H]2C(=O)C[C@@]2(C)[C@H]1CC[C@]2(O)C(=O)CO` [Prednisone] (1000 nM): the normalised response in assay [16] came out at 104%; in assay [17] it was 95.4%; in [18] it was 102%; in assay [19], 105%; in assay [20], 120%; in [21], 92.9%. The normalised response came out at 102% in assay [22]; 113% in assay [23]; 101% in assay [24]; 100% in [25]; 110% in [26]; 108% in [27]. Also, the results for the normalised response in assay [28] and in assay [29] were 103% and 106%, respectively.
For the molecule `CN1CCN(c2nc(C3=C(c4c[nH]c5ccccc45)C(=O)NC3=O)c3ccccc3n2)CC1` [Sotrastaurin] (1000 nM), the normalised response came to 105% in assay [16]; 101% in assay [17]; 93.7% in assay [18]; 88% in [19]; 122% in assay [20]; 121% in [21]. Besides, the normalised response in assay [22] turned out to be 92.5%; in assay [23], 115%; in assay [24], 96%; in [25] it was 93.5%; in assay [26], 101%; in assay [27], 95.3%. The values for the normalised response in assay [28] and in [29] were 108% and 102%, respectively.
Turning to `CC/C(=C(\c1ccccc1)c1ccc(OCCN(C)C)cc1)c1ccccc1` [Tamoxifen] (1000 nM), the normalised response in [16] worked out at 95.9%; in assay [17], 96.1%; in assay [18] it was 94.8%; in [19] it was 103%; in assay [20], 81.8%; in assay [21], 99.8%. The normalised response was determined as 104% in assay [22]; 107% in assay [23]; 102% in assay [24]; 106% in [25]; 106% in assay [26]; 104% in assay [27]. The results for the normalised response in assay [28] and in assay [29] were 103% and 93.1%, respectively.
For `COc1cc2c(N3CCN(C(=O)Nc4ccc(OC(C)C)cc4)CC3)ncnc2cc1OCCCN1CCCCC1` [Tandutinib] (100 nM), the normalised response in assay [16] stood at 105%; in assay [17], 103%; in assay [18], 101%; in assay [19], 101%; in assay [20] it was 96.2%; in assay [21] it was 109%. The normalised response in assay [22] came out at 103%; in assay [23], 121%; in assay [24], 100%; in assay [25] it was 102%; in [26], 96.3%; in assay [27], 96.6%. The normalised response in [28] came out at 106%; in [29], 97.4%.
As to `C[C@@H](C(=O)O)c1ccc(-c2ccccc2)c(F)c1` [Tarenflurbil] (1000 nM), the normalised response in [16] was 92%; in assay [17], 99.3%; in assay [18], 96.5%; in assay [19], 91.7%; in [20] it was 119%; in [21], 98.8%. The normalised response in [22] came out at 92.5%; in assay [23], 106%; in assay [24], 94.7%; in [25], 94.7%; in assay [26], 101%; in assay [27] it was 90.1%. Moreover, the figures for the normalised response in assay [28] and in [29] were 95% and 96%, respectively.
With `Cn1nnc2c(C(N)=O)ncn2c1=O` [Temozolomide] (1000 nM), the normalised response in assay [16] was found to be 95.4%; in assay [17], 101%; in assay [18] it was 99.3%; in [19] it was 97.6%; in assay [20], 76.4%; in [21] it was 99.4%. Further, the normalised response in assay [22] was 98.1%; in assay [23], 116%; in assay [24], 93.9%; in assay [25], 98.8%; in assay [26] it was 91.7%; in assay [27], 104%. The results for the normalised response in assay [28] and in assay [29] were 93.3% and 100%, respectively.
`CC[C@@H]1C(=O)N(C)c2cnc(Nc3ccc(C(=O)N[C@H]4CC[C@H](N5CCN(CC6CC6)CC5)CC4)cc3OC)nc2N1C(C)C` [Volasertib] (100 nM): the normalised response in assay [16] was 63.6%; in assay [17], 25.9%; in [18] it was 64.4%; in assay [19], 53%; in assay [20], 23.7%; in assay [21], 53%. Besides, the normalised response in [22] was determined as 50.5%; in [23] it was 45.6%; in assay [24] it was 81%; in assay [25], 76.6%; in assay [26], 54.6%; in assay [27], 58.5%. Moreover, the normalised response in assay [28] was found to be 48.5%; in assay [29] it was 77.3%.
